Test results from patent publication US11371985B2, “Selection of agents modulating gastrointestinal pain” (BIOGAIA AB, priority 2014, dated 2022).
“And” between values parts separate entries of the source, which are not always exact repeats. Identical values can stand only once.

Legend:
[1] = tested on: fibers presumed to be nociceptors; set-up: species or system Swiss Webster mice
TRPV1 receptor [2] = target: T1, TRPV1 receptor (Mus musculus, UniProt Q704Y3); test: Capsaicin-induced Ca2+ rise in DRG neuronal primary cultures (Fluo-4 Ca2+ imaging); type: cell-based; set-up: we used Ca^2+ imaging of DRG neuronal primary culture for these experiments; endogenous in cells; host or cells: primary dorsal root ganglion neurons (thoracolumbar levels)
T1 sequence (Q704Y3 whole entry): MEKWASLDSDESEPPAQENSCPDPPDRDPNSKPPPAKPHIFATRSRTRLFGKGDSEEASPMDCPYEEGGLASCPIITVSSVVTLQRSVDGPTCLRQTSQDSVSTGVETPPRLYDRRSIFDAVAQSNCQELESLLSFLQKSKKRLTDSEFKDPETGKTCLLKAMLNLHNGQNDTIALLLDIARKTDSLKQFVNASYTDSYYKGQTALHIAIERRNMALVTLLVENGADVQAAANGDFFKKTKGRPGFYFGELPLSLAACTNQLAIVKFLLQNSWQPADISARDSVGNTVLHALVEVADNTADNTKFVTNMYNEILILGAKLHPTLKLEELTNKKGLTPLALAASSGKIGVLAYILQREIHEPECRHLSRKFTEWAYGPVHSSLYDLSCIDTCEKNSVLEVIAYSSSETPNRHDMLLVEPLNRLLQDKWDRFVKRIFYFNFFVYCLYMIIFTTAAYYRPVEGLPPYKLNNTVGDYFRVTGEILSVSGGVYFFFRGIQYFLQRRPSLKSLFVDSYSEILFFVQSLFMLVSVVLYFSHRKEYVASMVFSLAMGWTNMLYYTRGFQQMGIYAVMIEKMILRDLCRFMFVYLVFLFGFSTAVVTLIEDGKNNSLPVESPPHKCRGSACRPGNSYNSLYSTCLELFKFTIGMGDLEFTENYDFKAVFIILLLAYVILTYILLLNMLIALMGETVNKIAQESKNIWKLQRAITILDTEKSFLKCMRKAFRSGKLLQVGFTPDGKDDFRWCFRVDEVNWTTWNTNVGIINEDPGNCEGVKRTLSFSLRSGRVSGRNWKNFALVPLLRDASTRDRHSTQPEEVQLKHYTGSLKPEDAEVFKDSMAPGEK
Experimental: The spinal column was removed from the body, transferred to a beaker containing ice-cold Krebs, and bisected longitudinally. DRG were exposed and collected from the thoracolumbar levels. Whole DRG were washed twice with sterile Leibovitz's L-15 medium (GIBCO, Gaithersburg, Md.), and incubated for 40 min in collagenase type 1 at 1 mg/ml (Sigma-Aldrich; Oakville, ON, Canada) and 0.5 ml trypsin (0.25%, GIBCO) in 20 ml L-15 at 37° C. After further addition of 5 ml L-15 containing 10% fetal bovine serum (FBS, GIBCO), the ganglia were centrifuged for 5 min at 1,000 rpm, then washed twice with growth medium (L-15, containing 10% FBS, 1% Penicillin/Streptomycin/Glutamine, 1% HEPES and 1% Na Pyruvate). […]
DRG neurons were placed within a plexiglass recording dish and loaded with the Ca^2+ indicator Fluo-4-AM (8 μM) diluted in Krebs with 0.1% pluronic acid (in DMSO) at 37° C. for 60 min. […] Fluorescence intensity in individual neurons was recorded by Simple PCI 6 software (Compix Inc, Imaging systems, Sewickley, Pa.). […] Images, recorded at 0.9 frame/s, were stored on a local hard drive. Image files were analyzed off-line using Image J software (NIH, USA, http://imagej.nih.gov/ij). The increase in Fluo-4 Ca^2+ when applying capsaicin was measured as the ratio (F/F0) fluorescence intensity after capsaicin (F) divided by the intensity before capsaicin (F0). […]

TRPV1 receptor [3] = target: T1, TRPV1 receptor; set-up: Segments of distal jejunum (˜2.5 cm) with attached mesenteric tissue were removed from freshly killed animals; from tissue; host or cells: mouse distal jejunum with attached mesenteric nerve bundle (ex vivo); species or system Swiss Webster mice

Row | SMILES | single-unit response to distension [1] | fluorescence rise ratio F/F0 evoked by capsaicin (TRPV1 receptor [2]; 1 μM capsaicin alone (control group, N=14)) | time to increase in intracellular Ca2+ after puffing capsaicin (TRPV1 receptor [2]; 1 μM capsaicin onto DRG neurons) | capsaicin-evoked excitation with intramural synaptic blockage (TRPV1 receptor [3]; 1 μM capsaicin in presence of 500 nM each ω-Cg-GVIA and ω-Cg-MVIIC, n=12, P=0.947) | capsaicin-evoked excitation (firing frequency increase) (TRPV1 receptor [3]; 1 μM capsaicin serosal, alone (control group), n=17) | maximal response (Top) obtained with capsaicin (TRPV1 receptor [3]; capsaicin alone, increase in firing frequency above baseline) | onset latency of capsaicin-induced firing rate increase (TRPV1 receptor [3]; capsaicin applied to serosal compartment) | Emax (TRPV1 receptor [3]; read-out: maximal response (Top) obtained with capsaicin, capsaicin alone, increase in firing frequency above baseline) | EC50 (TRPV1 receptor [3]; serosal capsaicin 100 nM-100 μM, vagotomized mice, three-parameter logistic fit, read-out: EC50 for capsaicin alone (increase in firing frequency))
1 | COc1cc(CNC(=O)CCCCCC(C)C)c(I)cc1O [6-Iodonordihydrocapsaicin] | 2.23±0.50 Hz | – | – | – | – | – | – | – | –
2 | COc1cc(CNC(=O)CCCC/C=C/C(C)C)ccc1O [capsaicin] | – | 2.36±0.31 | ~30 s | 219.1±72.6% | 187.5±42.9% and 187.5±43% | 238±27% | ~60 s | 238 ± 27.5% | 200 nM
